Test results published in ChEMBL document CHEMBL3879914, “Inhibitors of central nervous system vasoactive inhibitory peptide receptor 2” (2014).

Legend:
[1] = target: T1, Vasoactive intestinal polypeptide receptor 2 (Homo sapiens) (UniProt P41587); assay: (§1) Antagonist activity at recombinant human N-terminal signal peptide/FLAG epitope-tagged VIPR2 expressed in HEK293 cells co-expressing CAMYEL assessed as inhibition of VIP-induced cAMP accumulation at 0.5 uM preincubated for 5 mins with luciferin, coelenterazine H followed by VIP addition measured after 5 mins by BRET assay relative to control; type: functional, cell-based
T1 sequence (whole entry): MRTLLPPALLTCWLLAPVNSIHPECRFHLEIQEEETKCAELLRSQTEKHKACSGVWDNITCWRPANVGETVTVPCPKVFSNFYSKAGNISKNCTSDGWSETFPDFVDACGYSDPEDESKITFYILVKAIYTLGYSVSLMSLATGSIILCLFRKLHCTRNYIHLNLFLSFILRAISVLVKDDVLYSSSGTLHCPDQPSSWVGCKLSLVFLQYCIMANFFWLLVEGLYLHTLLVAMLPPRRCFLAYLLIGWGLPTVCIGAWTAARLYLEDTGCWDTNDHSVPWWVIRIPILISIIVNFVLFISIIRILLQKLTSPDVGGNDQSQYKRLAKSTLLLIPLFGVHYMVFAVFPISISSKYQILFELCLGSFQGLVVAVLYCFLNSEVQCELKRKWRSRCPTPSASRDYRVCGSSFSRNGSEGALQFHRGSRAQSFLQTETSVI

[2] = target: T1, Vasoactive intestinal polypeptide receptor 2 (Homo sapiens); assay: as §1, with “5” for “0.5”; type: functional, cell-based
[3] = target: T1, Vasoactive intestinal polypeptide receptor 2 (Homo sapiens); assay: as §1, with “1” for “0.5”; type: functional, cell-based
[4] = target: T1, Vasoactive intestinal polypeptide receptor 2 (Homo sapiens); assay: as §1, with “epitope-tagged Rluc8-fused” for “epitope-tagged”, “cells” for “cells co-expressing CAMYEL”, “human mVenus-beta-arrestin2 binding” for “cAMP accumulation”, “5” for “0.5”; type: cell-based
[5] = target: T1, Vasoactive intestinal polypeptide receptor 2 (Homo sapiens); assay: as §1, with “epitope-tagged Rluc8-fused” for “epitope-tagged”, “cells” for “cells co-expressing CAMYEL”, “human mVenus-beta-arrestin2 binding” for “cAMP accumulation”, “1” for “0.5”; type: cell-based
[6] = target: T1, Vasoactive intestinal polypeptide receptor 2 (Homo sapiens); assay: as §1, with “epitope-tagged Rluc8-fused” for “epitope-tagged”, “cells” for “cells co-expressing CAMYEL”, “human mVenus-beta-arrestin2 binding” for “cAMP accumulation”; type: cell-based

inhibition [1] | inhibition [2] | inhibition [3] | inhibition [4] | inhibition [5] | inhibition [6] | Structure (SMILES)
14.2% | 21% | 19.2% | -8.8% | 10.9% |  | O=C(NC[C@@H](O)C[C@@H](Cc1ccccc1)C(=O)N[C@H]1c2ccccc2C[C@H]1O)c1ccncc1
14.1% | 23.3% | 10.9% | 31.8% | 20.3% | 2.8 to 27.6% | Cc1ccc(S(=O)(=O)NC[C@@H](O)C[C@@H](Cc2ccccc2)C(=O)N[C@H]2c3ccccc3C[C@H]2O)c(C)c1
14.4% | 26.5% | 16% | 17.2% | 20.1% | 11.3 to 21.9% | O=C(Cc1cccc(Cl)c1)NC[C@@H](O)C[C@@H](Cc1ccccc1)C(=O)N[C@H]1c2ccccc2C[C@H]1O
9.7% | 72.1% | 13% | 56.7% | 18.1% | 0% | CC(C)(C)c1ccc(S(=O)(=O)NC[C@@H](O)C[C@@H](Cc2ccccc2)C(=O)N[C@H]2c3ccccc3C[C@H]2O)cc1
15.7% | 5.9% | 5.9% | -10% |  | -7.1 to -2.05% | CO[C@@H]1Cc2ccccc2[C@@H]1NC(=O)[C@H](Cc1ccccc1)C[C@H](O)CNS(=O)(=O)c1ccc([N+](=O)[O-])cc1
18.4% | 15.6% | 19.2% | 17.5% | 23.7% | 9.9 to 16.6% | O=C(CCl)NC[C@@H](O)C[C@@H](Cc1ccccc1)C(=O)N[C@H]1c2ccccc2C[C@H]1O
8.8% | 17.5% | 12.4% | 10.2% | 7.4% | 3.3 to 13.8% | O=C(NC1CCCc2ccccc21)[C@H](Cc1ccccc1)C[C@H](O)CNS(=O)(=O)c1ccc([N+](=O)[O-])cc1 (stereo not given in full)
0.9% | 5.3% | 5.1% | 13.8% | 1.9% | -5.6 to 9.55% | CCCCNC(=O)[C@H](Cc1ccccc1)C[C@H](O)CNS(=O)(=O)c1ccc([N+](=O)[O-])cc1
5.1% | 17.4 to 69.5% | 6.6 to 69.5% | 0.6% | 5.9% | 4.8 to 9% | O=C(NC1CCCc2ccccc21)[C@@H](Cc1ccccc1)C[C@H](O)CNS(=O)(=O)c1ccc([N+](=O)[O-])cc1 (stereo not given in full)
10.7% | 23.2% | 16% | 7.8% | 11.3% | 15.5 to 16.2% | CC(C)(C)c1ccc(C(=O)NC[C@@H](O)C[C@@H](Cc2ccccc2)C(=O)N[C@H]2c3ccccc3C[C@H]2O)cc1
-2.1% | 4.7% | -4.9% | 9.2% | 17.1% | 6.95 to 17.4% | O=C(NC1CCCC1)[C@H](Cc1ccccc1)C[C@H](O)CNS(=O)(=O)c1ccc([N+](=O)[O-])cc1
14.9% | 20.3% | 17.7% | 5.5% | 32.7% | 6.1 to 12.9% | O=C(NC[C@@H](O)C[C@@H](Cc1ccccc1)C(=O)N[C@H]1c2ccccc2C[C@H]1O)c1ccccn1
2.4% | 22.1 to 23.6% | 7.2 to 22.1% | 30.8% |  |  | O=C(NCc1ccc(F)cc1F)[C@H](Cc1ccccc1)C[C@H](O)CNS(=O)(=O)c1ccc([N+](=O)[O-])cc1
-4.8% | 0.5% | -4.8% | -2.8% |  |  | O=C([C@H](Cc1ccccc1)C[C@H](O)CNS(=O)(=O)c1ccc([N+](=O)[O-])cc1)N1CCCCC1
2.1% | 6.2% | 4.4% | -4.5% |  | -8.4 to 0.85% | O=C([C@H](Cc1ccccc1)C[C@H](O)CNS(=O)(=O)c1ccc([N+](=O)[O-])cc1)N1CCC(CO)CC1
1.7% | 12.9% | 5.6% | -2.4% | -5.4% |  | O=C(NC1CCCCCC1)[C@H](Cc1ccccc1)C[C@H](O)CNS(=O)(=O)c1ccc([N+](=O)[O-])cc1
6.7% | 2.1% | 3.6% |  |  | -6.5 to 10.4% | NC(=O)[C@H](Cc1ccccc1)C[C@H](O)CNS(=O)(=O)c1ccc([N+](=O)[O-])cc1
-7.9% | -0.1% | 4.4% |  | 3% | -5.2 to 23.3% | C[C@H](CC(C)(C)C)NC(=O)[C@H](Cc1ccccc1)C[C@H](O)CNS(=O)(=O)c1ccc([N+](=O)[O-])cc1
-5.8% | 3% |  | 0.3% |  | 1.65 to 7% | O=C([C@@H](Cc1ccccc1)C[C@H](O)CNS(=O)(=O)c1ccc([N+](=O)[O-])cc1)N1CCOCC1
 |  | -0.9% | -7.6% | 6% | -10 to 14.9% | CCNC(=O)[C@@H](Cc1ccccc1)C[C@H](O)CNS(=O)(=O)c1ccc([N+](=O)[O-])cc1
11.7% | 9.4% | 12.9% |  |  | -0.6 to 1.7% | O=C(CCCCBr)NC[C@@H](O)C[C@@H](Cc1ccccc1)C(=O)N[C@H]1c2ccccc2C[C@H]1O
-5.3% | -1.4% | -7.3% |  |  | -6.85 to 0% | O=C(N[C@H]1c2ccccc2C[C@H]1O)[C@H](Cc1ccccc1)C[C@H](O)CNS(=O)(=O)c1ccc(C(=O)N2CCCCC2)cc1
0.6% | 26.9% | 1.5% |  | -1.2% | -3.4 to 8.25% | CCC(=O)Nc1ccc(S(=O)(=O)NC[C@@H](O)C[C@@H](Cc2ccccc2)C(=O)N[C@H]2c3ccccc3C[C@H]2O)cc1
10.9% | 18.3% | 13.6% | -0.6% | -3.8% |  | Cc1ccc([N+](=O)[O-])cc1S(=O)(=O)NC[C@@H](O)C[C@@H](Cc1ccccc1)C(=O)N[C@H]1c2ccccc2C[C@H]1O
0.5% |  | -8.4% | -2.7% | 1.2% | -6.6 to -3.6% | CCN(CC)C(=O)[C@@H](Cc1ccccc1)C[C@H](O)CNS(=O)(=O)c1ccc([N+](=O)[O-])cc1
21.1% | 26% | 11.3% |  |  | 4.9 to 6.9% | CO[C@@H]1Cc2ccccc2[C@@H]1NC(=O)[C@H](Cc1ccccc1)C[C@H](O)CN(C)S(=O)(=O)c1ccc([N+](=O)[O-])cc1
-7.1% | -6.2% | -0.4% |  | 0.1% | -9.25 to 15.2% | CCNC(=O)[C@H](Cc1ccccc1)C[C@H](O)CNS(=O)(=O)c1ccc([N+](=O)[O-])cc1
0.5% | 15.1% | 2.3% |  | 5.7% | -8.1 to 2.4% | O=C(NC[C@@H](O)C[C@@H](Cc1ccccc1)C(=O)N[C@H]1c2ccccc2C[C@H]1O)c1cccc(CCl)c1
0.7% | -0.9% | 2.6% |  |  |  | CC(C)C(=O)NC[C@@H](O)C[C@@H](Cc1ccccc1)C(=O)N[C@H]1c2ccccc2C[C@H]1O
